This experiment deals with IRAK4 (Homo sapiens (Human), UniProt Q9NWZ3). The experiment can be described thus: IRAK4 Kinase Assay. The format is biochemical. The conditions noted are these: IMAP fluorescence polarization, 0.5 nM GST tagged IRAK4, 100 μM ATP, 30 minutes at 25° C.; read-out: IRAK4 IC50.

Structures can show the parent of a compound that is named as a salt.

In general, IC50 refers to the point on the concentration scale where inhibition reaches its midpoint.

Sequence of IRAK4 (Q9NWZ3 whole entry): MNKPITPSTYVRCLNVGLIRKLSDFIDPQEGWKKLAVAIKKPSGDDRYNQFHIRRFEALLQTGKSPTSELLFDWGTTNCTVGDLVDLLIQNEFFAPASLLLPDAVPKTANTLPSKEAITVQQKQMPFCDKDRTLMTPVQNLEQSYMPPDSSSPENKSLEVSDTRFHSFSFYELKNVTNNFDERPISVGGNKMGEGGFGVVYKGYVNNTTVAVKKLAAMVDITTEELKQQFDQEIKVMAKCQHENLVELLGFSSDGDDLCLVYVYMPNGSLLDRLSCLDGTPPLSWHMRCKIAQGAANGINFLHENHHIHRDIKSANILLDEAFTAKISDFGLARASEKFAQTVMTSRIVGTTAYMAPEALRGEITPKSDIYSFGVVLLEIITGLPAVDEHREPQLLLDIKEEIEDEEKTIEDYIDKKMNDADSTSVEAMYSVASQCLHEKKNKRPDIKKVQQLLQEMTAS
Procedure: The kinase activity of IRAK4 is determined by its ability to catalyze the phosphorylation of a fluorescent polypeptide substrate. The extent of phosphorylation is measured using the IMAP technology (Molecular Devices) where the phosphorylated fluorescent substrate binds to the large M(III)-based nanoparticles which reduces the rotational speed of the substrate and thus increases its fluorescent polarization (FP).
20 μL reaction mixture contains 10 mM TriHCl, pH 7.2, 0.5 nM GST tagged IRAK4 (SignalChem), 100 nM fluorescent peptide substrate (RP7030, Molecular Devices), 100 μM ATP, 1 mM DDT, 1 mM MgCl2, and 0.01% Tween 20. The reaction is initiated by the addition of ATP. After incubation for 30 minutes at 25° C., 60 μL of Progressive IMAP Reagent (Molecular Devices) is added to stop the reaction. Change in RP7030's FP is determined by a FP reader (Analyst HT, LJL BioSystems).

For `Cn1cc(NC(=O)c2cnn3ccc(N[C@@H]4CCCNC4)nc23)c(C(F)(F)F)n1` [Example 9, N-[1-methyl-3-(trifluoromethyl)-1H-pyrazol-4-yl]-5-[(3R)-piperidin-3-ylamino]pyrazolo[1,5-a]pyrimidine-3-carboxamide trifluoroacetate], the IC50 was found to be 0.5 nM.
Consider `Cn1cc(NC(=O)c2cnn3ccc(N4CCCNCC4)nc23)c(C(F)F)n1` [Example 87, 5-(1,4-diazepan-1-yl)-N-[3-(difluoromethyl)-1-methyl-1H-pyrazol-4-yl]pyrazolo[1,5-a]pyrimidine-3-carboxamide trifluoroacetate], for which the IC50 is 4 nM.
Turning to `Cn1cc(NC(=O)c2cnn3ccc(N[C@@H]4CCCC[C@@H]4N)nc23)c(Br)n1` [Example 138, 5-{[(1R,2S)-2-aminocyclohexyl]amino}-N-(3-bromo-1-methyl-1H-pyrazol-4-yl)pyrazolo[1,5-a]pyrimidine-3-carboxamide trifluoroacetate], the IC50 stood at 0.3 nM.
On to `Cn1cc(NC(=O)c2cnn3ccc(N4C[C@H]5CC[C@@H]4CN5)nc23)c(C(F)F)n1` (single isomer, unassigned) [Example 161, 5-[(1S,4S)- or (1R,4R)-2,5-diazabicyclo[2.2.2]oct-2-yl]-N-[3-(difluoromethyl)-1-methyl-1H-pyrazol-4-yl]pyrazolo[1,5-a]pyrimidine-3-carboxamide trifluoroacetate], for which the IC50 amounted to 2 nM.
Turning to `O=C(Nc1cn(C(F)F)nc1C(F)(F)F)c1cnn2ccc(N3CC4CCC3CN4)nc12` (stereo not shown) [Example 67, 5-(2,5-diazabicyclo[2.2.2]oct-2-yl)-N-[1-(difluoromethyl)-3-(trifluoromethyl)-1H-pyrazol-4-yl]pyrazolo[1,5-a]pyrimidine-3-carboxamide trifluoroacetate], the IC50 was 74 nM.
In the case of `Cn1cc(NC(=O)c2cnn3ccc(N4C[C@H]5CNC[C@@H]4C5)nc23)c(C(F)F)n1` (single isomer, unassigned) [Example 240, 5-[(1S,5R)- or (1R,5S)-3,6-diazabicyclo[3.2.1]oct-6-yl]-N-[3-(difluoromethyl)-1-methyl-1H-pyrazol-4-yl]pyrazolo[1,5-a]pyrimidine-3-carboxamide], the IC50 is 43 nM.
Take `O=C(Nc1ccccc1Br)c1cnn2ccc(N3CCCNCC3)nc12` [Example 109, N-(2-bromophenyl)-5-(1,4-diazepan-1-yl)pyrazolo[1,5-a]pyrimidine-3-carboxamide trifluoroacetate]: the half-maximal inhibitory concentration (IC50) was 3360 nM.
In the case of `Cn1cc(NC(=O)c2cnn3ccc(N4CCNC(C5CC5)C4)nc23)c(C(F)(F)F)n1` (stereo not shown) [Example 28, 5-(3-cyclopropylpiperazin-1-yl)-N-[1-methyl-3-(trifluoromethyl)-1H-pyrazol-4-yl]pyrazolo[1,5-a]pyrimidine-3-carboxamide trifluoroacetate], the IC50 is 72 nM.
The same measure for `Cc1cnc(-c2nn(C)cc2NC(=O)c2cnn3ccc(N[C@@H]4CCCC[C@@H]4N)nc23)o1` [Example 285, 5-{[(1R,2S)-2-aminocyclohexyl]amino}-N-[1-methyl-3-(5-methyl-1,3-oxazol-2-yl)-1H-pyrazol-4-yl]pyrazolo[1,5-a]pyrimidine-3-carboxamide trifluoroacetate]: 24 nM; for `Cn1cc(NC(=O)c2cnn3ccc(NC4CCCCC4)nc23)cn1` [Example 3, 5-(cyclohexylamino)-N-(1-methyl-1H-pyrazol-4-yl)pyrazolo[1,5-a]pyrimidine-3-carboxamide trifluoroacetate]: 237 nM.
On to `O=C(Nc1cscc1Br)c1cnn2ccc(N3CCCNCC3)nc12` [Example 123, N-(4-bromothiophen-3-yl)-5-(1,4-diazepan-1-yl)pyrazolo[1,5-a]pyrimidine-3-carboxamide trifluoroacetate], for which the IC50 came to 389 nM.
On to `Cn1cc(NC(=O)c2cnn3ccc(N4CCC[C@@H](O)C4)nc23)c(C(F)F)n1` [Example 25, N-[3-(difluoromethyl)-1-methyl-1H-pyrazol-4-yl]-5-[(3R)-3-hydroxypiperidin-1-yl]pyrazolo[1,5-a]pyrimidine-3-carboxamide], for which the IC50 was 0.5 nM.
Regarding `Cn1cc(NC(=O)c2cnn3ccc(N4CCC[C@@H](N)C4)nc23)c(C(F)F)n1` [Example 90, 5-[(3R)-3-aminopiperidin-1-yl]-N-[3-(difluoromethyl)-1-methyl-1H-pyrazol-4-yl]pyrazolo[1,5-a]pyrimidine-3-carboxamide trifluoroacetate], the IC50 was 0.5 nM.
In the case of `N[C@@H]1[C@H](Nc2ccn3ncc(C(=O)Nc4cscc4Br)c3n2)CCCC1(F)F` [Example 122, 5-{[(1R,2R)-2-amino-3,3-difluorocyclohexyl]amino}-N-(4-bromothiophen-3-yl)pyrazolo[1,5-a]pyrimidine-3-carboxamide trifluoroacetate], the half-maximal inhibitory concentration (IC50) was determined as 1140 nM.
Regarding `CC(C)n1cc(NC(=O)c2cnn3ccc(N[C@@H]4CCCC[C@@H]4N)nc23)c(C(F)(F)F)n1` [Example 291, 5-{[(1R,2S)-2-aminocyclohexyl]amino}-N-[1-(1-methylethyl)-3-(trifluoromethyl)-1H-pyrazol-4-yl]pyrazolo[1,5-a]pyrimidine-3-carboxamide trifluoroacetate], the IC50 came out at 0.8 nM.
For `Cn1cc(NC(=O)c2cnn3ccc(N[C@@H]4CCCC[C@@H]4N)nc23)c(-c2nncn2C)n1` [Example 286, 5-{[(1R,2S)-2-aminocyclohexyl]amino}-N-[1-methyl-3-(4-methyl-4H-1,2,4-triazol-3-yl)-1H-pyrazol-4-yl]pyrazolo[1,5-a]pyrimidine-3-carboxamide trifluoroacetate], the IC50 was 7 nM.
For `Cn1cc(NC(=O)c2cnn3ccc(N4C[C@@H]5CC[C@H]4CN5)nc23)c(Cl)n1` (single isomer, unassigned) [Example 151, N-(3-chloro-1-methyl-1H-pyrazol-4-yl)-5-[(1S,4S)- or (1R,4R)-(2,5-diazabicyclo[2.2.2]oct-2-yl]pyrazolo[1,5-a]pyrimidine-3-carboxamide trifluoroacetate], the IC50 was 128 nM.
Consider `Cn1cc(NC(=O)c2cnn3ccc(N[C@@H]4CCCCNC4)nc23)c(C(F)F)n1` (single isomer, unassigned) [Example 162, 5-[(3S)- or (3R)-azepan-3-ylamino]-N-[3-(difluoromethyl)-1-methyl-1H-pyrazol-4-yl]pyrazolo[1,5-a]pyrimidine-3-carboxamide trifluoroacetate], for which the IC50 is 0.2 nM.
In the case of `N[C@@H]1[C@H](Nc2ccn3ncc(C(=O)Nc4ccccc4C(F)(F)F)c3n2)CCCC1(F)F` [Example 114, 5-{[(1R,2R)-2-amino-3,3-difluorocyclohexyl]amino}-N-[2-(trifluoromethyl)phenyl] pyrazolo[1,5-a]pyrimidine-3-carboxamide trifluoroacetate] it was 3820 nM; in that of `O=C(Nc1cn(C(F)F)nc1C(F)(F)F)c1cnn2ccc(N3CCNCC3)nc12` [Example 300, N-[1-(difluoromethyl)-3-(trifluoromethyl)-1H-pyrazol-4-yl]-5-piperazin-1-ylpyrazolo[1,5-a]pyrimidine-3-carboxamide trifluoroacetate], 55 nM; in that of `Cn1cc(NC(=O)c2cnn3ccc(N[C@@H]4CCC(F)(F)C[C@@H]4N)nc23)c(C(F)F)n1` (single isomer, unassigned) [Example 211, 5-{[(1S,2R)- or (1R,2S)-2-amino-4,4-difluorocyclohexyl]amino}-N-[3-(difluoromethyl)-1-methyl-1H-pyrazol-4-yl]pyrazolo[1,5-a]pyrimidine-3-carboxamide], 27 nM.
On to `Cn1cc(NC(=O)c2cnn3ccc(N4C[C@H](O)C[C@@H](O)C4)nc23)c(C(F)F)n1` [Example 24, N-[3-(difluoromethyl)-1-methyl-1H-pyrazol-4-yl]-5-[(3R,5R)-3,5-dihydroxypiperidin-1-yl]pyrazolo[1,5-a]pyrimidine-3-carboxamide], for which the IC50 worked out at 4 nM.
Consider `CC(C)n1cc(NC(=O)c2cnn3ccc(N4CC5CCC4CN5)nc23)c(C(F)(F)F)n1` (stereo not shown) [Example 53, 5-(2,5-diazabicyclo[2.2.2]oct-2-yl)-N-[1-(1-methylethyl)-3-(trifluoromethyl)-1H-pyrazol-4-yl]pyrazolo[1,5-a]pyrimidine-3-carboxamide], for which the IC50 was 48 nM.
Consider `Cn1cc(NC(=O)c2cnn3ccc(N4CCNCCC45CC5)nc23)c(C(F)(F)F)n1` [Example 95, 5-(4,7-diazaspiro[2.6]non-4-yl)-N-[1-methyl-3-(trifluoromethyl)-1H-pyrazol-4-yl]pyrazolo[1,5-a]pyrimidine-3-carboxamide trifluoroacetate], for which the IC50 stood at 789 nM.
For `Cn1cc(NC(=O)c2cnn3ccc(N4CC5CNC(COC5)C4)nc23)c(C(F)(F)F)n1` (stereo not shown) [Example 80, N-[1-methyl-3-(trifluoromethyl)-1H-pyrazol-4-yl]-5-(3-oxa-7,9-diazabicyclo[3.3.2]dec-7-yl)pyrazolo[1,5-a]pyrimidine-3-carboxamide trifluoroacetate], the IC50 worked out at 29 nM.
As to `CC(O)c1cc(NC(=O)c2cnn3ccc(N[C@@H]4CCCC[C@@H]4N)nc23)cs1` (stereo partly drawn) [Example 276, 5-(((1R,2S)-2-Aminocyclohexyl)amino)-N-(5-(1-hydroxyethyl)thiophen-3-yl)pyrazolo[1,5-a]pyrimidine-3-carboxamide], the IC50 came to 64 nM.
With `N[C@@H]1[C@H](Nc2ccn3ncc(C(=O)Nc4ccsc4C(F)F)c3n2)CCCC1(F)F` [Example 170, 5-{[(1R,2R)-2-amino-3,3-difluorocyclohexyl]amino}-N-[2-(difluoromethyl)thiophen-3-yl]pyrazolo[1,5-a]pyrimidine-3-carboxamide], the concentration for half-maximal inhibition (IC50) was 560 nM.
With `N[C@H]1CCCC[C@H]1Nc1ccn2ncc(C(=O)Nc3ccsc3C(F)(F)F)c2n1` [Example 144, 5-{[(1R,2S)-2-aminocyclohexyl]amino}-N-[2-(trifluoromethyl)thiophen-3-yl]pyrazolo[1,5-a]pyrimidine-3-carboxamide trifluoroacetate], the IC50 is 7 nM.

For the origin of these results see US10329294B2, “Pyrazolopyrimidine inhibitors of IRAK4 activity” (MERCK SHARP & DOHME CORP., priority 2015, dated 2019).
